Test: Forced degradation studies by TOF-MS
Type: physicochemical
Conditions: 0.5 mg/ml in potassium citrate, pH 8.1, 37° C.
Method: 0.5 mg/ml of PHAD was prepared in potassium citrate, pH 8.1 and stored at 37° C. pH 8.1 is outside the preferred ranges of the invention and induces degradation. Samples were prepared for analysis by the addition of 200 μL of CHCl3, 200 μL of methanol, and 100 μL of ammonium acetate in 80:20 methanol/water. After mixing the bottom layer was transferred and diluted with 100 μL of methanol. Samples were analyzed by electrospray time-of-flight (TOF) mass spectrometry (MS) in negative mode via direct infusion. […] In addition, those skilled in the art understand that various adduct ions may occur during each analysis from day to day. Therefore, molecular formulas are based upon the ions observed considering error of the system day to day. […] By Days 1, 7, 13, and 20 significant ions appear at 1309 and 1519 and continue to increase from Day 1 to Day 20. The MS ion at 1309 represents a loss of two acyl groups (molecular formula is C28H53O3; 437 Daltons) and the MS ion at 1519 represents a loss of a single acyl group (molecular formula is C14H27O2; 227 Daltons) from the diglucosamine scaffold. By Day 7, the mass intensity of the 1519 ion had increased to 46% of the mass intensity of the 1745 mass ion. On Day 0 the mass intensity of the 1519 ion was 4% of that of the 1745 mass ion.
0.5 mg/ml of 3-deacyl-phosphorylated hexaacyl disaccharide was prepared in potassium citrate, pH 8.1 and stored at 37° C. All preparation and analysis were conducted as listed in experiment 1. […] By Days 1, 13, and 22 a significant ion appeared at 1084 and continued to increase from Day 1 to Day 22. The MS ion at 1084 represents a loss of two acyl groups (molecular formula is C28H53O3; 437 Daltons) from the diglucosamine scaffold. By Day 13 the intensity of the 1084 mass ion had increased to 24% of the intensity of the 1521 mass ion. On Day 0 the intensity of the 1084 mass ion was 3% of the intensity of the 1521 mass ion. […] Phosphorylated hexaacyl disaccharide and 3-deacyl phosphorylated hexaacyl disaccharide primarily degrade by losing acyl groups. The formulations of the invention prevent the loss of these acyl groups.
Because it was both pure and abundant, the pentaacyl MLA component was chosen for examination of its degradation mechanism. […] The degradation experiment was conducted in PBS, pH 7.4 and stored at 37° C. This saline buffer system was selected because the use of saline is outside the preferred embodiments of the invention.

Substance	mass intensity of the 1519 ion relative to the 1745 mass ion (Day 0) [%]	mass intensity of the 1519 ion relative to the 1745 mass ion (Day 7) [%]	intensity of the 1084 mass ion relative to the 1521 mass ion (Day 0) [%]	intensity of the 1084 mass ion relative to the 1521 mass ion (Day 13) [%]
phosphorylated hexaacyl disaccharide [PHAD]	4	46	–	–
3-deacyl-phosphorylated hexaacyl disaccharide	–	–	3	24
